Test results reported in US12404279B2, “Deubiquitinase inhibitors and methods of use thereof” (Molecure S.A., priority 2021, dated 2025).
Entries after “also recorded” stand apart in the source; their conditions may differ.

Tests used:
[1] = tested on: CD4+ T cells; experiment: Immunomodulatory effect on isolated, anti-CD3/anti-CD28 activated CD4+ T cells from C57BL/6 mice; type: cell-based
From the text: (§1) Splenocytes from three C57BL/6 mice donors were isolated separately. Next, specific CD4^+ cells were extracted from all splenocytes with EasySep™ Mouse CD4^+ T cell Isolation Kit by negative selection (StemCell; Cat. #19852). The purity of splenic CD4^+ T cells exceeded 95%, as confirmed by flow cytometric analysis following staining with anti-mouse CD3 and CD4 antibodies. Pure CD4^+ cells were subsequently seeded in RPMI full medium (50 000 cells/well) on 96-well U-bottom plate covered with 1 μg/mL antiCD3 and 1 μg/mL antiCD28 (for stimulation and activation). Then. […] The final concentration of DMSO in wells was 0.03%. After 72 h, lymphocyte activation was evaluated by counting, testing viability (LDH Assay, CellTiter Glo Assay) and cytokine. Statistical significance of observed effects was determined based on mean values calculated from technical replicates for each mouse (n=9; experiment was performed three times). • 1. ATP level in cell lysates (CellTiterGlo Viability Assay. Promega;) • 2. LDH level in cell culture medium • 3. Cell counting (Orange-Acridine staining, Luna automated cell counter, Logos Biosystems) • 4. mTNF-α in supernatants (ELISA) • 5. mIFN-γ in supernatants (ELISA) • 6. Magpix Luminex (T-Cells Panel: GM-CSF, IFN-γ, IL-10 TNF-α)

[2] = as above; type: cell-based; details: C57BL/6; activated mouse CD4+ T cells, 72 h; read-out: cytotoxicity IC50 (cell viability, CellTiter Glo Assay)
From the text: as §1

[3] = target: full-length USP7 (Homo sapiens (Human), UniProt Q93009); experiment: Enzymatic assay to determine IC50 of USP7 inhibitors (Ubiquitin-Rhodamine 110 cleavage); type: biochemical; details: 0.5 nM USP7, 0.5 μM Ubiquitin-Rhodamine 110, 45 min at 37° C.
full-length USP7, sequence (Q93009 whole entry): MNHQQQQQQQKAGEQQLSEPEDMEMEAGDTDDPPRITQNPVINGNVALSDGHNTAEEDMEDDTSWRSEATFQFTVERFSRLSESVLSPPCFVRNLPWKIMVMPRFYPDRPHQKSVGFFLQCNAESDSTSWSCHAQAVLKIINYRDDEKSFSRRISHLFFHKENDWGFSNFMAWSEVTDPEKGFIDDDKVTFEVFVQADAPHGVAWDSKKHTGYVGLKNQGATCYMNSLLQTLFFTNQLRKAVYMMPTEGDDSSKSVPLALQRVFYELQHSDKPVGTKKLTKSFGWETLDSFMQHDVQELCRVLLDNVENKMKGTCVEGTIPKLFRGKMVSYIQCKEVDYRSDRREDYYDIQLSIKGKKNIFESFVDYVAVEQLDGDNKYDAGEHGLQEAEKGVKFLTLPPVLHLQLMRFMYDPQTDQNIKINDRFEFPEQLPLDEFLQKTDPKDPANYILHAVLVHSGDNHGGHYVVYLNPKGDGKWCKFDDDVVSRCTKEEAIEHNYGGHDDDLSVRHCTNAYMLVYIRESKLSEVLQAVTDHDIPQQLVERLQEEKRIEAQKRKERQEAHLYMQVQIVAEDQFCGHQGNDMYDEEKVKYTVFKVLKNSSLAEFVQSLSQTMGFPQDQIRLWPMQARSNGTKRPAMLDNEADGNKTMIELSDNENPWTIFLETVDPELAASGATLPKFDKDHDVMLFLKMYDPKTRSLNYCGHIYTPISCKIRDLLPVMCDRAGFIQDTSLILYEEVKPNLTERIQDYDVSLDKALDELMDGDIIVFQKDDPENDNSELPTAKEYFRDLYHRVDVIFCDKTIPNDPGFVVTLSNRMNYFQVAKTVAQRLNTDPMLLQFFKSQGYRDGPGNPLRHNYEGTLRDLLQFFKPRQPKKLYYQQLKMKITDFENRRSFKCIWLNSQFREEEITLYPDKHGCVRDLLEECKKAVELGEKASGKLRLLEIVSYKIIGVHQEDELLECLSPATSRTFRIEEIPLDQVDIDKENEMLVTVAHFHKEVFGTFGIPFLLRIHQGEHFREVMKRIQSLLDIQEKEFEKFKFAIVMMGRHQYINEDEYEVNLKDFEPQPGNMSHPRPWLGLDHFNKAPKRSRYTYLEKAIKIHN
How it was run: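 Enzyme: 0.5 nM full-length USP7 in HEPES pH 7.5 buffer with NaCl, DTT, BSA and Tween20, given 15 min at room temperature with DTT before compounds were added.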

[4] = tested on: mouse CD8+ T cells; experiment: Cytotoxic effect on mouse CD8+ T cells (splenocytes, flow cytometry); type: cell-based; details: 24 hours of incubation
Experimental: In these experiments, the mouse splenocytes were seeded into in 24-well plate and after 24 hours of incubation with USP7 inhibitors the T cells viability was analyzed with flow cytometry. […] Mann-Whitney test.

[5] = tested on: CD4+ T cells; experiment: In vivo and ex vivo immunomodulatory effect in BALB/c mice (splenic CD4+ T cells); type: cell-based
Experimental: BALB/c mice (10-week-old females, n=3) were administered with Example 77 at 200 mg/kg (BID) by oral gavage for 3 consecutive days. Untreated mice were used as the control group (n=3). Animals were sacrificed 16 hours following the last dosing. The spleens were collected and total CD4^+ lymphocytes were isolated by bead-based negative separation according to the manufacturers manual (EasySep™ Mouse CD4+ T cell Isolation Kit, StemCell; Cat. #19852). The purity of splenic CD4^+ T cells exceeded 95%, as confirmed by flow cytometric analysis following staining with anti-mouse CD3 and CD4 antibodies. Isolated CD4^+ T cells were seeded in triplicates (50 000 cells/well in RPMI full medium) on 96-well U-bottom plate covered with 1 μg/mL anti-CD3 and 1 μg/mL anti-CD28 antibodies (for stimulation and activation of cells). Following one hour preincubation in 37° C. degree, CD4^+ T cells were treated with 2 μM of Example 77, the final concentration of DMSO in wells was 0.03%. After 72 h lymphocytes activation was evaluated by testing viability, cytotoxicity and cytokine release: mTNF-α and mIFN-γ.
• 1. ATP level in cell lysates (CellTiterGlo Viability Assay, Promega) • 2. Lactate dehydrogenase (LDH) level in cell culture medium (LDH-Glo Cytotoxicity Assay, Promega) • 3. Cell counting (Fluorescence staining, Luna automated cell counter, Logos Biosystems) • 4. mTNF-α in supernatants by ELISA • 5. mIFN-γ in supernatants by ELISA

[6] = tested on: CT26 cells; experiment: Killing assay: splenocytes of tumor-bearing mice co-cultured with CT26 cells; type: cell-based, mouse; details: co-culture with CT26 cells 1:10 and 1:50, 36 h
Experimental: To investigate the killing capability of T cells the splenocytes were isolated from tumor-bearing mice treated and untreated with different concentrations of Example 77. CT26 cells were seeded and stained with Green Cell Tracker. Stained CT26 cells were co-cultured with splenocytes from experimental animals in two ratios 1:10 and 1:50. After 36 h cells were harvested and analyzed on the flow cytometer.

[7] = tested on: CT26 model of colon carcinoma; experiment: Antitumor efficacy in the subcutaneous CT26 syngeneic model of colon carcinoma
Experimental: The 7-8-week old BALB/c females (BALB/cAnNCrl, Charles River Laboratories) were injected subcutaneously in the right flank with 5×10^5 CT26 cells. USP7 inhibitors were dosed by oral gavage twice per day at indicated doses starting from 2-5 days after the tumor implantation. […] Tumor volume was estimated by a formula: width×length×depth×π/6.

[8] = 0.5-2.5 μM, 72 h, ELISA / Magpix Luminex
[9] = 0.5-2.5 μM, 72 h, Magpix Luminex
[10] = 2 μM, 72 h, LDH-Glo cytotoxicity assay

## CN[C@H]1CCN(C(=O)c2c(C)cc(C(F)(F)F)nc2-c2ccnc3cc(CN4C(=O)C5C(C4=O)C5(C)C)sc23)C1.Cl.Cl (stereo partly drawn) [Example 77, 6,6-dimethyl-3-((7-(4-methyl-3-((S)-3-(methylamino)pyrrolidine-1-carbonyl)-6-(trifluoromethyl)pyridin-2-yl)thieno[3,2-b]pyridin-2-yl)methyl)-3-azabicyclo[3.1.0]hexane-2,4-dione dihydrochloride]
[1]; [8]
  IFNg level in supernatants: Statistically significant increase
  TNFa level in supernatants: not affected
[1]; [9]
  GM-CSF level in supernatants: Statistically significant increase
  IL-10 level in supernatants: not affected
[1]; CellTiter Glo Assay, head to head
  times less cytotoxic than the reference RAPT compound: 10
[1]; after 72 h of incubation
  viability by cell counting (Luna cell counter, trypan blue): comparable to that obtained with CellTiter Glo
[1]; low concentration (0.5-2.5 μM)
  CD4+ T cells activation and pro-inflammatory cytokine release: does not disturb
[2]
  IC50 at 72 h: ~9 µM
[3]
  IC50: < 0.5 µM
[4]
  cytotoxicity to CD8 T cells: limited
[5]; 2 μM ex vivo, 72 h
  pro-inflammatory cytokines release after additional ex vivo treatment of isolated T-cells: additionally increases
[5]; 2 μM, 72 h
  total ATP level (CellTiter Glo Assay): didn't affect
[5]; 2 μM, 72 h, ELISA
  CD4+ T cells activation and pro-inflammatory cytokines release: TNF-α and IFN-γ: does not affect
[5]; [10]
  LDH concentration in the culture medium vs. positive control: ≤ 5%
  cytotoxicity for CD4+ T-cells: not cytotoxic
[5]; CD4+ T cells, 2 μM, 72 h
  T cells viability: does not affect
[5]; mice dosed 200 mg/kg BID by oral gavage for 3 days
  ex vivo pro-inflammatory cytokine release of activated CD4+ T cells from treated mice vs. control mice: much more
[6]
  killing capability of splenocytes from treated CT26-bearing mice vs. control mice: enhanced killing capability
[7]; 100 mg/kg PO BID, anti-PD-1 combination experiment
  TGI: 69%
[7]; 100 mg/kg PO BID, log-rank test
  increase in survival time vs. anti-PD-1 monotherapy group: 26%
[7]; 100 mg/kg, cytometric analysis
  percent of CD8+ T cells in tumor: increase
[7]; 100 mg/kg, data not shown
  interferon-γ production in CD8+ T cells: enhanced amounts
[7]; 100 mg/kg, flow cytometry
  granzyme B production in CD8+ T cells: enhanced amounts
[7]; anti-CD8 antibody 100 μg intraperitoneally on days 1, 7 and 14, dihydrochloride
  antitumor effect after injection of CD8-depleting anti-CD8 antibodies: completely abrogated; also recorded: requires CD8+ T cells
[7]; combination with anti-PD-1 antibody, dihydrochloride
  effect on the therapeutic effect of anti-PD-1 antibody: potentiated; also recorded: increases the efficiency
[7]; dose-dependent, oral gavage BID, day 20 post-inoculation, p=0.048
  tumor growth inhibition (TGI): up to 67%
[7]; survival analysis, anti-PD-1 combination experiment
  survival time: 29 days
